Test results reported in patent publication US10807970B2 (priority 2016, dated 2020).

Target: human σ1 receptor (Homo sapiens, UniProt Q99720)
Test: Human σ1 receptor radioligand assay ([3H](+)-pentazocine, transfected HEK-293 membranes)
Assay type: binding
Design: μ and σ1 dual binding: key to the marks not given beside the values
Conditions: one class symbol for both Ki-σ1 (human σ1 receptor, A1) and Ki-μ (human μ-opioid receptor, A2)
Procedure: Human σ1 Receptor Radioligand Assay
To investigate binding properties of test compounds to human σ1 receptor, transfected HEK-293 membranes and [^3H](+)-pentazocine (Perkin Elmer, NET-1056), as the radioligand, were used. The assay was carried out with 7 μg of membrane suspension, 5 nM of [^3H](+)-pentazocine in either absence or presence of either buffer or 10 μM Haloperidol for total and non-specific binding, respectively. Binding buffer contained Tris-HCl 50 mM at pH 8. Plates were incubated at 37° C. for 120 minutes. After the incubation period, the reaction mix was then transferred to MultiScreen HTS, FC plates (Millipore), filtered and plates were washed 3 times with ice-cold 10 mM Tris-HCL (pH7.4). Filters were dried and counted at approximately 40% efficiency in a MicroBeta scintillation counter (Perkin-Elmer) using EcoScint liquid scintillation cocktail

Sequence of human σ1 receptor (Q99720 whole entry): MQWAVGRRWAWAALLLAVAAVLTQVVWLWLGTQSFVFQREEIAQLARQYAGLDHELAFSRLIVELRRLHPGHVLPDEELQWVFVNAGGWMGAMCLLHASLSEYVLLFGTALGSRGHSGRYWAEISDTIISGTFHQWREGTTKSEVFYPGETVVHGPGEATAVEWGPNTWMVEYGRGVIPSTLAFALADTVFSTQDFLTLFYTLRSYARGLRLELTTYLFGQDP

SMILES	μ and σ1 dual binding
CC1(C)CC(C(=O)c2ccccn2)(N2CCN(Cc3ccccn3)CC2)CCO1 (centres unmarked) [Example 50, (2,2-dimethyl-4-(4-(pyridin-2-ylmethyl)piperazin-1-yl)tetrahydro-2H-pyran-4-yl)(pyridin-2-yl)methanone]	++
CC1(C)CC(C)(N2CCN(CCc3ccccc3)CC2)CCO1 (centres unmarked) [Example 53, 1-phenethyl-4-(2,2,4-trimethyltetrahydro-2H-pyran-4-yl)piperazine]	++
CC1(C)CC(C(=O)c2ccccn2)(N2CCN(CCc3ncccc3F)CC2)CCO1 (centres unmarked) [Example 55, (4-(4-(2-(3-fluoropyridin-2-yl)ethyl)piperazin-1-yl)-2,2-dimethyltetrahydro-2H-pyran-4-yl)(pyridin-2-yl)methanone]	++
CC(c1ccc(F)cc1)N1CCN(C2(C(=O)c3ccccn3)CCOC(C)(C)C2)CC1 (centres unmarked) [Example 63, (4-(4-(1-(4-fluorophenyl)ethyl)piperazin-1-yl)-2,2-dimethyltetrahydro-2H-pyran-4-yl)(pyridin-2-yl)methanone]	++
CC1(C)CC(C(=O)c2ccccn2)(N2CCN(CCOCC(F)(F)F)CC2)CCO1 (centres unmarked) [Example 69, (2,2-dimethyl-4-(4-(2-(2,2,2-trifluoroethoxy)ethyl)piperazin-1-yl)tetrahydro-2H-pyran-4-yl)(pyridin-2-yl)methanone]	++
CC(C)(O)COCCN1CCN(C2(C(=O)c3ccccn3)CCOC(C)(C)C2)CC1 (centres unmarked) [Example 70, (4-(4-(2-(2-hydroxy-2-methylpropoxy)ethyl)piperazin-1-yl)-2,2-dimethyltetrahydro-2H-pyran-4-yl)(pyridin-2-yl)methanone]	++
CC(C)OCCN1CCN(C2(C(=O)c3ccccn3)CC(C)(C)OC(C)(C)C2)CC1 [Example 72, (4-(4-(2-isopropoxyethyl)piperazin-1-yl)-2,2,6,6-tetramethyltetrahydro-2H-pyran-4-yl)(pyridin-2-yl)methanone]	++
CC(C)OCCN1CC2CN(C3(C(=O)c4ccccn4)CCOC(C)(C)C3)CC2C1 (centres unmarked) [Example 73, (4-(5-(2-isopropoxyethyl)hexahydropyrrolo[3,4-c]pyrrol-2(1H)-yl)-2,2-dimethyltetrahydro-2H-pyran-4-yl)(pyridin-2-yl)methanone]	++
CC(C)OCCN1CCN(C2(C(=O)c3ccccn3)CCOC2)CC1 (centres unmarked) [Example 74, (3-(4-(2-isopropoxyethyl)piperazin-1-yl)tetrahydrofuran-3-yl)(pyridin-2-yl)methanone]	++
CCC1(N2CCN(CCC(C)C)CC2)CCOC(C)(C)C1 (centres unmarked) [Example 78, 1-(4-ethyl-2,2-dimethyltetrahydro-2H-pyran-4-yl)-4-isopentylpiperazine]	++
CC(C)CCN1CCN(C2(C)CCOC(C)(C)C2)CC1 (centres unmarked) [Example 79, 1-isopentyl-4-(2,2,4-trimethyltetrahydro-2H-pyran-4-yl)piperazine]	++
CCC1(N2CCN(CCc3ccncc3)CC2)CCOC(C)(C)C1 (centres unmarked) [Example 82, 1-(4-ethyl-2,2-dimethyltetrahydro-2H-pyran-4-yl)-4-(2-(pyridin-4-yl)ethyl)piperazine]	++
CCC1(N2CCN(CCc3cccnc3)CC2)CCOC(C)(C)C1 (centres unmarked) [Example 83, 1-(4-ethyl-2,2-dimethyltetrahydro-2H-pyran-4-yl)-4-(2-(pyridin-3-yl)ethyl)piperazine]	++

Same assay, conditions: one class symbol for both Ki-σ1 (human σ1 receptor, A1) and Ki-μ (human μ-opioid receptor, A2); read-out: μ and σ1 dual binding

Ki [nM]	SMILES
> 500	CC1(C)CC(C(=O)c2ccccn2)(N2CCN(CCc3ncccc3Cl)CC2)CCO1 (centres unmarked) [Example 56, (4-(4-(2-(3-chloropyridin-2-yl)ethyl)piperazin-1-yl)-2,2-dimethyltetrahydro-2H-pyran-4-yl)(pyridin-2-yl)methanone]
> 500	CC1(C)CC(C(=O)c2ccccn2)(N2CCN(Cc3cccnc3)CC2)CCO1 (centres unmarked) [Example 58, (2,2-dimethyl-4-(4-(pyridin-3-ylmethyl)piperazin-1-yl)tetrahydro-2H-pyran-4-yl)(pyridin-2-yl)methanone]
> 500	CC1(C)CC(C(=O)c2ccccn2)(N2CCN(Cc3ccncc3)CC2)CCO1 (centres unmarked) [Example 59, (2,2-dimethyl-4-(4-(pyridin-4-ylmethyl)piperazin-1-yl)tetrahydro-2H-pyran-4-yl)(pyridin-2-yl)methanone]
> 500	CCOCCN1CCN(C2(C(=O)c3ccccn3)CCOC(C)(C)C2)CC1 (centres unmarked) [Example 67, (4-(4-(2-ethoxyethyl)piperazin-1-yl)-2,2-dimethyltetrahydro-2H-pyran-4-yl)(pyridin-2-yl)methanone]
> 500	CC1(C)CC(C(=O)c2ccccn2)(N2CCN(CCc3cccnc3)CC2)CCO1 (centres unmarked) [Example 80, (2,2-dimethyl-4-(4-(2-(pyridin-3-yl)ethyl)piperazin-1-yl)tetrahydro-2H-pyran-4-yl)(pyridin-2-yl)methanone]
> 500	CC1(C)CC(C(=O)c2ccccn2)(N2CCN(CCc3ccncc3)CC2)CCO1 (centres unmarked) [Example 81, (2,2-dimethyl-4-(4-(2-(pyridin-4-yl)ethyl)piperazin-1-yl)tetrahydro-2H-pyran-4-yl)(pyridin-2-yl)methanone]

SMILES	Ki [nM]
CCC1(N2CCN(CCc3ccccc3)CC2)CCOC(C)(C)C1 (centres unmarked) [Example 52, 1-(4-ethyl-2,2-dimethyltetrahydro-2H-pyran-4-yl)-4-phenethylpiperazine]	< 500
CC(C)OCCN1CCN(C2(C(=O)c3ccccn3)CCOC(C)(C)C2)CC1 (centres unmarked) [Example 65, (4-(4-(2-isopropoxyethyl)piperazin-1-yl)-2,2-dimethyltetrahydro-2H-pyran-4-yl)(pyridin-2-yl)methanone]	< 500
COCCN1CCN(C2(C(=O)c3ccccn3)CCOC(C)(C)C2)CC1 (centres unmarked) [Example 68, (4-(4-(2-methoxyethyl)piperazin-1-yl)-2,2-dimethyltetrahydro-2H-pyran-4-yl)(pyridin-2-yl)methanone]	> 500
CC(C)OCCN1CCC(C2(C(=O)c3ccccn3)CCOC(C)(C)C2)CC1 (centres unmarked) [Example 77, (4-(1-(2-isopropoxyethyl)piperidin-4-yl)-2,2-dimethyltetrahydro-2H-pyran-4-yl)(pyridin-2-yl)methanone]	< 500

Same assay, conditions: μ and σ1 dual binding, one class symbol for both Ki-σ1 (human σ1 receptor, A1) and Ki-μ (human μ-opioid receptor, A2)

SMILES	Ki [nM]
COCCC1(N2CCN(CCc3ccccc3)CC2)CCOC(C)(C)C1 (centres unmarked) [Example 49, 1-(4-(2-Methoxyethyl)-2,2-dimethyltetrahydro-2H-pyran-4-yl)-4-phenethylpiperazine]	< 500
CC(C)CN1CCN(C2(C(=O)c3ccccn3)CCOC3(CCCC3)C2)CC1 (centres unmarked) [Example 51, (9-(4-isobutylpiperazin-1-yl)-6-oxaspiro[4.5]decan-9-yl)(pyridin-2-yl)methanone]	< 500
CC1(C)CC(C(=O)c2ccccn2)(N2CCN(CCc3ccccc3)CC2)CCO1 (centres unmarked) [Example 54, (2,2-dimethyl-4-(4-phenethylpiperazin-1-yl)tetrahydro-2H-pyran-4-yl)(pyridin-2-yl)methanone]	< 500
CC1(C)CC(C(=O)c2ccccn2)(N2CCN(CCc3ccncc3Cl)CC2)CCO1 (centres unmarked) [Example 57, (4-(4-(2-(3-chloropyridin-4-yl)ethyl)piperazin-1-yl)-2,2-dimethyltetrahydro-2H-pyran-4-yl)(pyridin-2-yl)methanone]	< 500
CC1(C)CC(C(=O)c2ccccn2)(N2CCN(Cc3ccc(F)cc3)CC2)CCO1 (centres unmarked) [Example 60, (4-(4-(4-fluorobenzyl)piperazin-1-yl)-2,2-dimethyltetrahydro-2H-pyran-4-yl)(pyridin-2-yl)methanone]	< 500
CC1(C)CC(C(=O)c2ccccn2)(N2CCN(Cc3cccc(F)c3)CC2)CCO1 (centres unmarked) [Example 61, (4-(4-(3-fluorobenzyl)piperazin-1-yl)-2,2-dimethyltetrahydro-2H-pyran-4-yl)(pyridin-2-yl)methanone]	< 500
CC(c1ccccc1)N1CCN(C2(C(=O)c3ccccn3)CCOC(C)(C)C2)CC1 (centres unmarked) [Example 62, (2,2-dimethyl-4-(4-(1-phenylethyl)piperazin-1-yl)tetrahydro-2H-pyran-4-yl)(pyridin-2-yl)methanone]	< 500
CC(C)CCN1CCN(C2(C(=O)c3ccccn3)CCOC(C)(C)C2)CC1 (centres unmarked) [Example 64, (4-(4-isopentylpiperazin-1-yl)-2,2-dimethyltetrahydro-2H-pyran-4-yl)(pyridin-2-yl)methanone]	< 500
CC(C)COCCN1CCN(C2(C(=O)c3ccccn3)CCOC(C)(C)C2)CC1 (centres unmarked) [Example 66, (4-(4-(2-isobutoxyethyl)piperazin-1-yl)-2,2-dimethyltetrahydro-2H-pyran-4-yl)(pyridin-2-yl)methanone]	< 500
CC(C)OCCCN1CCN(C2(C(=O)c3ccccn3)CCOC(C)(C)C2)CC1 (centres unmarked) [Example 71, (4-(4-(3-isopropoxypropyl)piperazin-1-yl)-2,2-dimethyltetrahydro-2H-pyran-4-yl)(pyridin-2-yl)methanone]	< 500
CC(C)OCCN1CCC(C2(c3ccccn3)CCOC(C)(C)C2)CC1 (centres unmarked) [Example 75, 2-(4-(1-(2-isopropoxyethyl)piperidin-4-yl)-2,2-dimethyltetrahydro-2H-pyran-4-yl)pyridine]	> 500
CC(C)CCN1CCC(C2(C(=O)c3ccccn3)CCOC(C)(C)C2)CC1 (centres unmarked) [Example 76, (4-(1-isopentylpiperidin-4-yl)-2,2-dimethyltetrahydro-2H-pyran-4-yl)(pyridin-2-yl)methanone]	< 100
